# Tested on: entorhinal cortex (neurons, astrocytes, microglia) of animals made epileptic with a chemo-convulsant
# Experiment: D-serine injected into the entorhinal area in an animal model of Temporal Lobe Epilepsy; neurons, astrocytes and microglia identified with fluorescent-tagged antibodies
# Format: in vivo
# Procedure: These cells cause inflammation in brain tissue by releasing cytokines. These neuroinflammatory cell types were identified using fluorescent-tagged antibodies first in control animals and then in animals that were made epileptic using a well-established animal model of Temporal Lobe Epilepsy. […] In a separate sample of animals, D-serine was injected into the entorhinal area prior to making them epileptic with a chemo-convulsant and immediately after administration of the chemo-convulsant.
# [1] = D-serine injected into the entorhinal area, FIG. 2 vs FIG. 3
structure (smiles),measurement,setting,value
N[C@H](CO)C(=O)O [D-serine],development of epilepsy after chemo-convulsant,D-serine injected into the entorhinal area prior to and immediately after administration of the chemo-convulsant,did not become epileptic
same,astrocytes in the entorhinal region (GFAP),[1],fewer astrocytes
same,neurons in the entorhinal cortex (NeuN) compared with the epileptic animals,[1],significant rescue of neurons
same,infiltration of microglia to the entorhinal region (OX42),"D-serine injected into the entorhinal area, FIG. 7 vs FIG. 8",significantly reduced

# — US20250032437A1, “D-Serine Inhibits Neuroinflammation Due To A Brain Injury” (Florida State University Research Foundation, Inc., priority 2019, published 2025)
